Measurements reported in article PMC10634346 (Cancer Research Communications, 2023).

Key:
[1] = test system: RNA polymerase II Ser2 phosphorylation (p-Ser2) in SU-DHL-10 cells; assay: In vitro washout, p-Ser2 Western blot, SU-DHL-10; type: cell-based, human; details: 1 µmol/L
Description: Evaluation of the pharmacodynamic extent and duration of CDK9 inhibition were performed in vitro using the human DLBCL cell lines SU-DHL-4 and SU-DHL-10, harboring MYC amplification and MYC overexpression with P57T mutation, respectively. Cells were seeded 18 hours prior to treatment for 4 hours with one of three CDK9 inhibitors, enitociclib (0.25 and1 µmol/L), atuveciclib (1 µmol/L) or KB-0742 (1 µmol/L), cells were washed, and incubation continued until 48 hours posttreatment. Samples were collected before treatment (−4), immediately after treatment (0), and at 1, 2, 4, 8, 12, 16, 24, and 48 hours after washout for RNA sequencing (RNA-seq), qPCR, and Western blotting analyses.
The levels of p-Ser2, p-Ser5 and total RNA polymerase II, Myc, Mcl-1, cleaved PARP (cPARP), and cleaved Caspase 3 were assessed by Western blotting and quantified near-infrared detection and background corrected quantification of fluorescence intensity on an Odyssey Imaging System with IRDye secondary antibodies (LI-COR Biosciences). For quantification, the protein levels were normalized to GAPDH or HSP90, expressed as a ratio to DMSO or vehicle control at matched timepoints. The normalized relative protein levels of p-Ser2 were used for a treatment effect comparison by performing an ANOVA using PROC MIXED in SAS. The ANOVA model included treatment, timepoints and their interactions as fixed effects. The least square means (LSM), differences between the LSMs and associated P values were generated. The following primary antibodies were used: Rpb1 NTD (D8L4Y) rabbit antibody [Cell Signaling Technology (CST), #14958], anti-RNA polymerase II subunit B1 (phospho CTD Ser-2, clone 3E10) rat antibody (Merck, 04-1571-I), recombinant anti-c-MYC rabbit antibody (Y69; Abcam, #ab32072), MCL1 (D5V5L) rabbit antibody (CST, #39224), cleaved-PARP (Asp214) (E2T4K) mouse antibody (CST, #32563), HSP90 (C45G5) rabbit antibody (CST, #4877), and GAPDH mouse antibody (Zytomed Systems, #ZYT-RGM2-6C5).

[2] = test system: MYC and MCL1 mRNA in SU-DHL-4 cells; assay: In vitro washout, MYC and MCL1 mRNA qPCR, SU-DHL-4; type: cell-based, human; details: 1 µmol/L, 4 h treatment then washout
Description: Evaluation of the pharmacodynamic extent and duration of CDK9 inhibition were performed in vitro using the human DLBCL cell lines SU-DHL-4 and SU-DHL-10, harboring MYC amplification and MYC overexpression with P57T mutation, respectively. Cells were seeded 18 hours prior to treatment for 4 hours with one of three CDK9 inhibitors, enitociclib (0.25 and1 µmol/L), atuveciclib (1 µmol/L) or KB-0742 (1 µmol/L), cells were washed, and incubation continued until 48 hours posttreatment. Samples were collected before treatment (−4), immediately after treatment (0), and at 1, 2, 4, 8, 12, 16, 24, and 48 hours after washout for RNA sequencing (RNA-seq), qPCR, and Western blotting analyses. Total RNA was extracted from blood of patients and cell lines using RNeasy Plus Mini Kit (QIAGEN, #74136) and cDNA prepared with the Maxima First Strand cDNA Synthesis Kit for RT-PCR (Thermo Fisher Scientific, K1642) according to manufacturer's instructions. The integrity of purified total RNA was evaluated using an Agilent 2100 Bioanalyzer system and RNA 6000 Nano Kit (Agilent, #5067-1511). […] MYC and MCL1 mRNA levels were measured by qPCR in vitro and in vivo, using a Taqman qPCR system (Thermo Fisher Scientific), TaqMan Fast Universal PCR Master Mix (2X) no AmpErase (#4352042) and TaqMan probes for MYC (Hs00153408_m1) and MCL1 (Hs03043899_m1). RNA-seq data were analyzed using DESeq2 ([35]).

[3] = test system: MCL1 mRNA in SU-DHL-10 tumors; assay: Pharmacodynamics in SU-DHL-10 xenograft tumors, MCL1 mRNA qPCR; type: in vivo, C.B-17 SCID mice; details: single dose; depletion sustained for 8 hours postdose at the two higher dose levels
Description: Total RNA was extracted from blood of patients and cell lines using RNeasy Plus Mini Kit (QIAGEN, #74136) and cDNA prepared with the Maxima First Strand cDNA Synthesis Kit for RT-PCR (Thermo Fisher Scientific, K1642) according to manufacturer's instructions. The integrity of purified total RNA was evaluated using an Agilent 2100 Bioanalyzer system and RNA 6000 Nano Kit (Agilent, #5067-1511). Differential gene expression analysis was performed (Fios Genomics) from RNA-seq data (Discovery Life Sciences). MYC and MCL1 mRNA levels were measured by qPCR in vitro and in vivo, using a Taqman qPCR system (Thermo Fisher Scientific), TaqMan Fast Universal PCR Master Mix (2X) no AmpErase (#4352042) and TaqMan probes for MYC (Hs00153408_m1) and MCL1 (Hs03043899_m1). RNA-seq data were analyzed using DESeq2 ([35]).
A total of 10 × 10^6 SU-DHL-10 cells were inoculated subcutaneously into 6–8 weeks old female C.B-17 SCID mice (Iffa Credo, Brussels). The mice were randomized to treatment groups at a tumor volume of 63–104 mm^3 and treated (intravenously, once weekly) with 10 mg/kg enitociclib (60% PEG400, 10% ethanol, water), 15 mg/kg enitociclib (30% PEG400, 10% ethanol, water), or corresponding vehicle treatments. Mice were around 10–12 weeks of age at the start of study. All animal experiments were performed under the national animal welfare laws of Germany and approved by the local authorities.

## COc1cc(F)ccc1-c1cc(Nc2cc(CS(C)(=N)=O)ccn2)ncc1F (stereo not shown) [enitociclib]
[1]; 4-hour treatment then washout
  reduction of p-Ser2: 50%
[1]; after treatment
  duration of p-Ser2 reduction: up to 24 hours
[2]
  MYC and MCL1 mRNA levels over the 48-hour time course (in words): durable depletion
[3]
  MCL1 mRNA levels in tumors (in words): reduced by 4 hours postdose
